The values below come from patent US10344065B2, “Method for treating Alzheimer's disease and method for downregulating protein aggregation in brain” (National Cheng Kung University, priority 2017, dated 2019).

In one experiment the test system is melanoma B16F10 cells. Put plainly: B16F10 metastasis to the lung in nude mice. The experiment is classed as in vivo, mouse. As for the experimental part: FIG. 4 includes photos showing that Zfra suppresses melanoma B16F10-mediated neurodegeneration in the hippocampus. Nude mice were preinjected with 100 μL, of sterile Milli-Q water or Zfra4-10 (1 mM in sterile water) in 3 consecutive weeks. After treatment for a week, these mice were inoculated with melanoma B16F10 cells on both flanks (2×10^5 cells in 100-μL, PBS). Mice were sacrificed when the tumor sizes grew up to 2000-3000 mm^3 in about a month. (A) Zfra blocked neurodegeneration in the hippocampus (top panel) and prevented the formation of TPC6AΔ plaques in the cortex (bottom panel), which negatively correlates with pS14-WWOX expression. Note the presence of condensed apoptotic nuclei in the hippocampal neurons in the control mice, (B) Metastasis of B16F10 cells to the lung was blocked in Zfra-treated mice. Compared to controls, Zfra suppressed p-S14WWOX expression in the lung by ˜72% suppression (three sections). […] (C and D) The non-spatial learning and memory were determined by novel object recognition task for both 3×Tg and Wwox+/− mice. […]
Six- to eight-week-old male nude (BALB/cAnN.Cg-Foxn1^nu/CrlNarl) mice (National Laboratory Animal Center, Taiwan) were used. […] Tumor volumes were measured daily and calculated using the equation, D×(d)^2/2, where D and d are the major and minor diameters, respectively. […] Z-cell distribution in organs was determined under fluorescence microscopy.

Experiment [1] concerns the target T1, WWOX7-21, WWOX286-299, and ANKRD40266-281 peptides (Homo sapiens, UniProt Q9NZC7).
T1 construct: purchased Genemed Synthesis
Kind of experiment: Polymerization of serine-containing WWOX and ANKRD40 peptides in PBS. It counts as biochemical. As for the experimental part: (§1) FIG. 5 includes photos and diagrams showing that Zfra suppresses polymerization or aggregation of serine-containing TPC6AΔ and other peptides in PBS. Zfra4-10 was incubated with an indicated serine-containing peptide in PBS at room temperature for 24 hours (final 200 μM each peptide). The mixtures were subjected to nonreducing sodium dodecyl sulfate polyacrylamide gel electrophoresis (SDS-PAGE). (A) Full-length Zfra or red-fluorescent TMR-Zfra blocked aggregation of Aβ42 (lanes 3, 5, and 7). […] The membrane was stained with antibody against Aβ. (B) Zfra4-10 and one of the TPC6AΔ peptides were resuspended in Milli-Q water or PBS and incubated for 24 hours at room temperature. Zfra4-10 suppressed the polymerization of serine-containing peptides. Reduction in intensity=[1−(Z.P)/(Z+P)]×100%, where Z=Zfra4-10, P=an indicated peptide, and Z.P=peptide mixture. […] Zfra4-10 suppressed polymerization of these peptides in PBS.
(§2) Zfra and serine-containing peptides were synthesized by Genemed Synthesis (San Antonio, Tex., USA), (1) Zfra1-31, […] (SEQ ID NO: 2); (2) Zfra4-10, RRSSSCK (SEQ ID NO: 1); (3) WWOX7-21, AGLDDTDSEDELPPG (SEQ ID NO: 3); (4) pS14-WWOX7-21, AGLDDTDpSEDELPPG (SEQ ID NO: 4); (5). WWOX286-299, DYWAMLAYNRSKLC (SEQ ID NO: 5); (6) pY287-WWOX286-299, DpYWAMLAYNRSKLC (SEQ ID NO: 6); (7) TPC6A24-38, DPGPGGQKMSLSVLE (SEQ ID NO: 7); (8) pS35-TPC6A24-38, DPGPGGQKMSLpSVLE (SEQ ID NO: 8); (9) TPC6A84-100, KDLWVAVFQKQMDSLR (SEQ ID NO: 9); (10) ANKRD40266-281, RIQNPSLRENDFIEIE (SEQ ID NO: 10); (11) pS271-ANKRD40266-281, RIQNPpSLRENDFIEIE (SEQ ID NO: 11); (12) tetramethylrhodamine-labeled Zfra (TMR-Zfra), the full-length Zfra1-31 was labeled with a red-fluorescent […] fluorescent probe tetramethylrhodamine. The peptide stocks were made as 10 mM in degassed sterile Milli-Q water. Each tube was flushed with nitrogen and stored in −80° C. freezer. For tail vein injections, peptides were freshly prepared in degassed Milli-Q water at 1-4 mM in 100-μL Milli-Q. GenBank accession for ANKRD40 is EU164539. Aβ peptides were from AnaSpec, (1) Aβ42: […] (SEQ ID NO: 12); (2) Aβ40: […] […]

Experiment [2] deals with WWOX7-21, WWOX286-299, and ANKRD40266-281 peptides. The description is as above. It counts as biochemical. As for the experimental part: as §1, §2

On to “RRSSSCK [Zfra4-10, truncated zinc finger-like peptide, amino acids 4-10 of Zfra]”, for which, in the experiment on melanoma B16F10 cells, the “B16F10 metastasis to the lung” value is on record as “blocked”. Also, in experiment [1], the “aggregation of pY287-WWOX286-299” value is recorded as “did not effectively block”. For the same substance, in experiment [2], the “polymerization of phosphorylated WWOX7-21 and ANKRD40266-281” value is given as “had apparent effects”; the “polymerization or aggregation of non-phosphorylated WWOX7-21, WWOX286-299, ANKRD40266-281” value is “effectively blocked”.
